Source: ChEMBL document CHEMBL2311414, “Synthesis, antimalarial activity and cytotoxic potential of new monocarbonyl analogues of curcumin” (Bioorg Med Chem Lett, 2013)

Assays:
HeLa = assay: Cytotoxicity against human HeLa cells after 48 hrs by MTT assay; format: functional, cell-based
MOLT-4 = assay: Cytotoxicity against human MOLT4 cells after 48 hrs by MTT assay; format: functional, cell-based; settings: MOLT-4, 48 h
KB = assay: Cytotoxicity against human KB cells after 48 hrs by MTT assay; format: functional, cell-based
PC-3 = assay: Cytotoxicity against human PC3 cells after 48 hrs by MTT assay; format: functional, cell-based; settings: PC-3, 48 h
DU-145 = assay: Cytotoxicity against human DU145 cells after 48 hrs by MTT assay; format: functional, cell-based; settings: DU-145, 48 h
Plasmodium falciparum [1] = assay: Antimalarial activity against chloroquine-sensitive Plasmodium falciparum D6 infected in RBC assessed as plasmodial LDH activity after 72 hrs; format: functional, organism-based
Plasmodium falciparum [2] = assay: Antimalarial activity against chloroquine-resistant Plasmodium falciparum W2 infected in RBC assessed as plasmodial LDH activity after 72 hrs; format: functional, organism-based
[3] = Selectivity index, ratio of IC50 for african green monkey Vero cells to IC50 for chloroquine-sensitive Plasmodium falciparum D6; format: toxicity, cell-based; settings: read-out: Ratio IC50
[4] = Selectivity index, ratio of IC50 for african green monkey Vero cells to IC50 for chloroquine-resistant Plasmodium falciparum W2; format: toxicity, cell-based; settings: read-out: Ratio IC50
Vero = assay: Cytotoxicity against african green monkey Vero cells up to 9 uM after 48 hrs by neutral red assay; format: cell-based; settings: chlorocebus sabaeus
[5] = Plasmodium falciparum, D6, 72 h, read-out: IC50
[6] = Plasmodium falciparum, W2, 72 h, read-out: IC50

Row | Compound | IC50 (HeLa) | IC50 (MOLT-4) | IC50 (KB) | IC50 (PC-3) | IC50 (DU-145) | IC50 (Plasmodium falciparum [1]; [5]) | IC50 (Plasmodium falciparum [2]; [6]) | selectivity ratio [3] | selectivity ratio [4] | Activity (Vero) | IC50 (Plasmodium falciparum [1]) | IC50 (Plasmodium falciparum [2])
1 | COc1cc(/C=C2\CC/C(=C\c3ccc(OCCCN(C)C)c(OC)c3)C2=O)ccc1OCCCN(C)C | 640 nM | 430 nM | 200 nM | 1500 nM | 430 nM | 1140 nM | 1530 nM | > 7.9 | > 6 | Non-toxic |  | 
2 | Cc1nccn1CCCCOc1ccc(/C=C2\CC/C(=C\c3ccc(OCCCCn4ccnc4C)cc3)C2=O)cc1 |  |  |  |  |  | 1090 nM | 1410 nM | > 7.7 | > 6 | Non-toxic |  | 
3 | O=C1/C(=C/c2ccc(OCCCCn3ccnc3)cc2)CC/C1=C\c1ccc(OCCCCn2ccnc2)cc1 |  |  |  |  |  | 2040 nM | 3540 nM | > 4.3 | > 2.5 | Non-toxic |  | 
4 | CN(C)CCCCOc1ccc(/C=C2\CC/C(=C\c3ccc(OCCCCN(C)C)cc3)C2=O)cc1 | 6800 nM | 330 nM | 1650 nM | 2900 nM | 4400 nM |  |  |  |  |  |  | 
5 | O=C1/C(=C/c2ccc(OCCCCN3CCOCC3)cc2)CCC/C1=C\c1ccc(OCCCCN2CCOCC2)cc1 |  |  |  |  |  |  |  |  |  | Non-toxic | Not Active | Not Active
6 | O=C1/C(=C/c2ccc(OCCCCN3CCOCC3)cc2)CC/C1=C\c1ccc(OCCCCN2CCOCC2)cc1 |  |  |  |  |  |  |  |  |  | Non-toxic | Not Active | Not Active
7 | O=C1/C(=C/c2ccc(OCCCCN3CCCCC3)cc2)CCC/C1=C\c1ccc(OCCCCN2CCCCC2)cc1 | 3630 nM | 730 nM | 2540 nM | 1530 nM | 2110 nM |  |  |  |  |  |  | 
8 | Cc1nccn1CCOc1ccc(/C=C2\CC/C(=C\c3ccc(OCCn4ccnc4C)cc3)C2=O)cc1 |  |  |  |  |  | 350 nM | 430 nM | > 26.4 | > 21.6 | Non-toxic |  | 
9 | O=C1/C(=C/c2ccc(OCCn3ccnc3)cc2)CC/C1=C\c1ccc(OCCn2ccnc2)cc1 |  |  |  |  |  | 450 nM | 370 nM | > 21.6 | > 26.4 | Non-toxic |  | 
10 | COc1cc(/C=C2\CC/C(=C\c3ccc(OCCCCn4ccnc4C)c(OC)c3)C2=O)ccc1OCCCCn1ccnc1C |  |  |  |  |  | 4000 nM | 4480 nM | > 1.9 | > 1.7 | Non-toxic |  | 
11 | COc1cc(/C=C2\CC/C(=C\c3ccc(OCCCCn4ccnc4)c(OC)c3)C2=O)ccc1OCCCCn1ccnc1 |  |  |  |  |  | 530 nM | 560 nM | > 14.9 | > 14 | Non-toxic |  | 
12 | COc1cc(/C=C2\CC/C(=C\c3ccc(OCCCCN4CCCCCC4)c(OC)c3)C2=O)ccc1OCCCCN1CCCCCC1 | 1390 nM | 410 nM | 2250 nM | 300 nM | 1010 nM | 1360 nM | 1820 nM | > 5.3 | > 4 | Non-toxic |  | 
13 | COc1cc(/C=C2\CC/C(=C\c3ccc(OCCCCN4CCCCC4)c(OC)c3)C2=O)ccc1OCCCCN1CCCCC1 | 490 nM | 320 nM | 550 nM | 500 nM | 460 nM | 1740 nM | 2850 nM | > 4.3 | > 2.6 | Non-toxic |  | 
14 | COc1cc(/C=C2\CC/C(=C\c3ccc(OCCCCN4CCOCC4)c(OC)c3)C2=O)ccc1OCCCCN1CCOCC1 | 720 nM | 360 nM | 620 nM | 280 nM | 670 nM | 690 nM | 630 nM | > 10.8 | > 11.9 | Non-toxic |  | 
15 | COc1cc(/C=C2\CC/C(=C\c3ccc(OCCCn4ccnc4C)c(OC)c3)C2=O)ccc1OCCCn1ccnc1C | 3150 nM | 660 nM | 1990 nM | 200 nM | 3900 nM | 2010 nM | 3010 nM | > 4 | > 2.6 | Non-toxic |  | 
16 | COc1cc(/C=C2\CC/C(=C\c3ccc(OCCCn4ccnc4)c(OC)c3)C2=O)ccc1OCCCn1ccnc1 |  |  |  |  |  |  |  |  |  | Non-toxic | Not Active | Not Active
17 | COc1cc(/C=C2\CCC/C(=C\c3ccc(OCCCN4CCCCC4)c(OC)c3)C2=O)ccc1OCCCN1CCCCC1 | 1950 nM | 550 nM | 1650 nM | 6910 nM | 2050 nM |  |  |  |  |  |  | 
18 | COc1cc(/C=C2\CC/C(=C\c3ccc(OCCn4ccnc4C)c(OC)c3)C2=O)ccc1OCCn1ccnc1C | 900 nM | 100 nM | 3400 nM | > 5000 nM | > 5000 nM | 1280 nM | 1380 nM | > 6.5 | > 6 | Non-toxic |  | 
19 | COc1cc(/C=C2\CC/C(=C\c3ccc(OCCn4ccnc4)c(OC)c3)C2=O)ccc1OCCn1ccnc1 |  |  |  |  |  | 2210 nM | 1810 nM | > 4 | > 4.9 | Non-toxic |  | 
20 | COc1cc(/C=C2\CC/C(=C\c3ccc(OCCN(C)C)c(OC)c3)C2=O)ccc1OCCN(C)C | 500 nM | 30 nM | > 5000 nM | > 5000 nM | > 5000 nM | 440 nM | 620 nM | > 21.6 | > 15.4 | Non-toxic |  | 
21 | COc1cc(/C=C2\CC/C(=C\c3ccc(OCCN4CCCCC4)c(OC)c3)C2=O)ccc1OCCN1CCCCC1 | 400 nM | 20 nM | 4400 nM | > 5000 nM | > 5000 nM | 500 nM | 530 nM | > 16.4 | > 15.4 | Non-toxic |  | 
22 | COc1cc(/C=C2\CC/C(=C\c3ccc(OCCN4CCOCC4)c(OC)c3)C2=O)ccc1OCCN1CCOCC1 |  |  |  |  |  | 3110 nM | 2410 nM | > 2.6 | > 3.4 | Non-toxic |  | 
23 | COc1cc(/C=C2\CC/C(=C\c3ccc(OCCBr)c(OC)c3)C2=O)ccc1OCCBr |  |  |  |  |  |  |  |  |  | Non-toxic | Not Active | Not Active
24 | C[C@@H]1CC[C@H]2[C@@H](C)C(=O)O[C@@H]3O[C@@]4(C)CC[C@@H]1[C@]32OO4 [ARTEMISININ] |  |  |  |  |  | 19 nM | 11 nM | > 470 | > 800 | Non-toxic |  | 
25 | CCN(CC)CCCC(C)Nc1ccnc2cc(Cl)ccc12 (configuration not stated) [CHLOROQUINE] |  |  |  |  |  |  |  |  |  | Non-toxic |  | 
26 | COc1cccc2c1C(=O)c1c(O)c3c(c(O)c1C2=O)C[C@@](O)(C(=O)CO)C[C@@H]3O[C@H]1C[C@H](N)[C@H](O)[C@H](C)O1 [DOXORUBICIN] | 2200 nM |  | 330 nM | 200 nM | 200 nM |  |  |  |  |  |  | 
